The text below walks through data of ChEMBL document CHEMBL1201862, “PubChem BioAssay data set” (2004).

Assay [1] deals with Beta-2 adrenergic receptor (Homo sapiens, UniProt P07550). The assay can be described thus: ADRB2 activation measured by internalization – cell-based, FAP fluorogen, flow cytometry, cherry pick 1, dose response (AID 588763). The assay is classed as functional.
Assay [2] has as its system HEK293. The assay can be described thus: HEK293T cell viability loss, resazurin readout – resazurin fluorescence, cytotoxicity control for NF-kB activator project, SAR follow-up (AID 493251). The assay is classed as functional, cell-based. The settings on record: Homo sapiens. (Resazurin is reduced to fluorescent resorufin, in cell work by metabolically active cells.)

Assay [3] has as its system Jurkat. The assay can be described thus: SAR Analysis of small molecule inhibitors of T-cell specific antigen receptor-induced NF-kB activation in a Jurkat cell line using a luminescence assay - Set 2. [Related pubchem assays (depositor defined):AID435003, AID435012, AID465]. The assay is classed as functional, cell-based. As to conditions: Homo sapiens.
Assay [4] is described as follows: HEK-293T cell viability reduction – luminescence, B-cell screen hits, cytotoxicity control for BCR NF-kB inhibitor project, dose response (AID 489021).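 Note: HEK-293T cells carrying an NF-kB luciferase reporter; cells exposed to compound for about 14 hours before viability readout.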 The class given is functional, cell-based.
Assay [5] relates to HEK293. The assay can be described thus: SAR Analysis of small molecule inhibitors of T-cell specific antigen receptor-induced NF-kB activation in a HEK-293T cell line using a luminescence assay - Set 2. [Related pubchem assays (depositor defined):AID435003, AID435012, AID489026]. The class given is functional, cell-based. As to conditions: Homo sapiens.
Assay [6] deals with Dual specificity protein kinase CLK1 (Homo sapiens, UniProt P49759). The assay can be described thus: inhibition of human CLK1 activity – biochemical, cherry-picked samples, selectivity assay for Dyrk1A inhibitor project, dose response (AID 588811).
In assay [7] the target is Dual specificity tyrosine-phosphorylation-regulated kinase 1A (Rattus norvegicus, UniProt Q63470). The assay is classed as biochemical, Homo sapiens.
Assay [8] in a line: viability loss in Vero cells – cytotoxicity control for Vif-APOBEC3G degradation inhibitor project, dose response (AID 1117358). As to conditions: Vero. The assay is classed as functional.
Assay [9] addresses Delta-type opioid receptor (Homo sapiens, UniProt P41143). The assay can be described thus: Counterscreen for agonists of heterodimerization of the mu 1 (OPRM1) and delta 1 (OPRD1) opioid receptors: Luminescence-based cell-based high throughput dose response assay to identify agonists of OPRD1 homodimerization. [Related pubchem assays (depositor defined):AID504326, AID504355, AID504692, AID504904, AID504905]. The assay is classed as functional. (In general: Counterscreens check selectivity or assay interference.)

The target of assay [10] is Opioid receptors; mu & delta (Homo sapiens, UniProt P41143+P35372). The assay can be described thus: OPRM1-OPRD1 heterodimer agonist potency – cell-based, luminescence, dose response (AID 588407). The class given is functional.
The target in assay [11] is 5-hydroxytryptamine receptor 5A (Homo sapiens, UniProt P47898). The assay can be described thus: Counterscreen for agonists of OPRM1-OPRD1 heterodimerization: luminescence-based cell-based high throughput dose response assay to identify agonists of 5-hydroxytryptamine (serotonin) 5A receptor (HTR5A). [Related pubchem assays (depositor defined):AID504326, AID504355, AID504692, AID504904, AID504905]. The assay is classed as functional.

Assay [12] deals with Mu-type opioid receptor (Homo sapiens, UniProt P35372). The experiment in a line: Counterscreen for agonists of heterodimerization of the mu 1 (OPRM1) and delta 1 (OPRD1) opioid receptors: Luminescence-based cell-based high throughput dose response assay to identify agonists of OPRM1 homodimerization. The class given is functional.
The target of assay [13] is Hexokinase-1 (Homo sapiens, UniProt P19367). The experiment in a line: SAR analysis of small molecule inhibitors of hexokinase domain containing I (HKDC1) in the hexokinase 1 selectivity assay. [Related pubchem assays (depositor defined):AID493160, AID493190]. The class given is functional.
Assay [14] addresses T1, Hexokinase HKDC1 (Homo sapiens, UniProt Q2TB90).
T1 sequence (Q2TB90 whole entry): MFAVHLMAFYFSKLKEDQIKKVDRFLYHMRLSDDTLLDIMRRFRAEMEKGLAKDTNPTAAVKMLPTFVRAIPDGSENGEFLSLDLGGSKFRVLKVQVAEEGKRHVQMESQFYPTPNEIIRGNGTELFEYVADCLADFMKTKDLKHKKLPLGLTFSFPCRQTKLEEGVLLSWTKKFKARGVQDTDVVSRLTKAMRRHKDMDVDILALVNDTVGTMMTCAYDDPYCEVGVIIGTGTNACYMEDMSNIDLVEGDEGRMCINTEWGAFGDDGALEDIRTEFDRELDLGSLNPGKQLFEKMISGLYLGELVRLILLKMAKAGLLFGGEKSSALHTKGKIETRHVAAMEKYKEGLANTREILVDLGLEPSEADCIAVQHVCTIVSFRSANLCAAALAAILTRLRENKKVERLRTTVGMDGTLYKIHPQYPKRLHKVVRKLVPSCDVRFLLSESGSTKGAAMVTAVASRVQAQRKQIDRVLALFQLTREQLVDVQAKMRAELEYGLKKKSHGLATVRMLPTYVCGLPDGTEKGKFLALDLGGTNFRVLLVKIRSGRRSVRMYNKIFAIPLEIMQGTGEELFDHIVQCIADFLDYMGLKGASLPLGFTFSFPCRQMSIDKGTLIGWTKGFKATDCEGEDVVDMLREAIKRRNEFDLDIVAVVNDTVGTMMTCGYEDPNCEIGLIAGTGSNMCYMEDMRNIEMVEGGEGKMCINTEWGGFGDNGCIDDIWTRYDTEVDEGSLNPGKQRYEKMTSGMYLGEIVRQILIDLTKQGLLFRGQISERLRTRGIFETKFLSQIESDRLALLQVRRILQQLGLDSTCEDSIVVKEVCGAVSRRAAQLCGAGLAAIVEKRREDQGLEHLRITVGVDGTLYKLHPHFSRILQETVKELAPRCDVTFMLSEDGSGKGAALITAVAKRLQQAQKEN
The assay can be described thus: SAR analysis of small molecule inhibitors of hexokinase domain containing I (HKDC1). [Related pubchem assays (depositor defined):AID493160, AID493190]. The assay is classed as functional.

The test system of assay [15] is Escherichia coli. The assay can be described thus: microbe, parasite or virus in culture.
The target of assay [16] is Glycogen synthase kinase-3 beta (Homo sapiens, UniProt P49841). The assay can be described thus: Inhibition of Human GSK-3 beta Activity Measured in Biochemical System Using Microfluidics - 2063-05_Inhibitor_Dose_DryPowder_Activity. [Related pubchem assays (depositor defined):AID2709].
Assay [17] deals with Glycogen synthase kinase-3 alpha (Homo sapiens, UniProt P49840). The experiment in a line: Inhibition of Human GSK-3 alpha Activity Measured in Biochemical System Using Microfluidics - 2063-06_Inhibitor_Dose_DryPowder_Activity. [Related pubchem assays (depositor defined):AID2709].
Assay [18] deals with Long-chain-fatty-acid--AMP ligase FadD28 (Mycobacterium tuberculosis, UniProt P9WQ59). The assay can be described thus: Fluorescence polarization aasay to screen for inhibitors that compete for the binding of FadD28 to a bisubstrate Measured in Biochemical System Using Plate Reader - 2147-01_Inhibitor_Dose_CherryPick_Activity. The assay is classed as functional, Mycobacterium tuberculosis H37Rv. (Fluorescence polarisation rises when a labelled molecule tumbles more slowly, as on binding a larger partner.)

Assay [19] deals with Beta-arrestin-1 (Homo sapiens, UniProt P49407). The experiment in a line: beta-arrestin/AP2 interaction blockers, potency – biochemical, cherry pick 1, beta2-adaptin appendage, flow cytometry, dose response (AID 588783). The assay is classed as functional.
Assay [20] has as its target T2, RNA-binding protein pos-1 (Caenorhabditis elegans, UniProt G5EF15).
T2 sequence (G5EF15 whole entry): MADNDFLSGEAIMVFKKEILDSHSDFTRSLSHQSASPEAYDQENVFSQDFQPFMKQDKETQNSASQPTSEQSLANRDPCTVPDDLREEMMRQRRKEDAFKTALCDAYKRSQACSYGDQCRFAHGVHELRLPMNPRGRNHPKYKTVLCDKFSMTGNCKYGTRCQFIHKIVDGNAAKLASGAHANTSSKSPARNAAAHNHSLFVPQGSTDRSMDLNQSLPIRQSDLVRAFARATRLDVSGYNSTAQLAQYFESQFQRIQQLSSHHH
The assay can be described thus: disruptors of C. elegans POS-1 RNA interaction – biochemical, fluorescence polarization, dose response (AID 1964).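 Note: purified POS-1 fused to maltose binding protein made in E. coli; potency of compounds blocking POS-1 binding to fluorescent RNA.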

Assay [21] has as its target T3, Zinc finger protein mex-5 (Caenorhabditis elegans, UniProt Q9XUB2).
T3 sequence (Q9XUB2 whole entry): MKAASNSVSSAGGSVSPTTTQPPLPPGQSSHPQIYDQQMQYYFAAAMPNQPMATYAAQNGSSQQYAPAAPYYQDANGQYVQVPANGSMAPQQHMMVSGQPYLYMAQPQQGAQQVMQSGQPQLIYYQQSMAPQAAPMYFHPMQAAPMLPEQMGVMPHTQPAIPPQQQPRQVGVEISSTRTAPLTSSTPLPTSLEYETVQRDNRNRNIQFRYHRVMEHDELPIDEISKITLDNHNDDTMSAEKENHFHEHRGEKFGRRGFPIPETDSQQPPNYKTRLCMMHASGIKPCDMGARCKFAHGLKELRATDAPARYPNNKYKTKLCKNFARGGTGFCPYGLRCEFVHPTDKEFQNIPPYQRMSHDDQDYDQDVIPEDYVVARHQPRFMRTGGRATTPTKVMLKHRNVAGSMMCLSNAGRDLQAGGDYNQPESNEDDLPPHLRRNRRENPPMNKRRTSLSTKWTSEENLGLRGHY
The experiment in a line: potency of MEX-5 RNA-binding blockers – biochemical, C. elegans, fluorescence polarization, dose response (AID 1960).

Assay [22] deals with T4, Apoptotic protease-activating factor 1 (Homo sapiens, UniProt O14727).
T4 sequence (O14727 whole entry): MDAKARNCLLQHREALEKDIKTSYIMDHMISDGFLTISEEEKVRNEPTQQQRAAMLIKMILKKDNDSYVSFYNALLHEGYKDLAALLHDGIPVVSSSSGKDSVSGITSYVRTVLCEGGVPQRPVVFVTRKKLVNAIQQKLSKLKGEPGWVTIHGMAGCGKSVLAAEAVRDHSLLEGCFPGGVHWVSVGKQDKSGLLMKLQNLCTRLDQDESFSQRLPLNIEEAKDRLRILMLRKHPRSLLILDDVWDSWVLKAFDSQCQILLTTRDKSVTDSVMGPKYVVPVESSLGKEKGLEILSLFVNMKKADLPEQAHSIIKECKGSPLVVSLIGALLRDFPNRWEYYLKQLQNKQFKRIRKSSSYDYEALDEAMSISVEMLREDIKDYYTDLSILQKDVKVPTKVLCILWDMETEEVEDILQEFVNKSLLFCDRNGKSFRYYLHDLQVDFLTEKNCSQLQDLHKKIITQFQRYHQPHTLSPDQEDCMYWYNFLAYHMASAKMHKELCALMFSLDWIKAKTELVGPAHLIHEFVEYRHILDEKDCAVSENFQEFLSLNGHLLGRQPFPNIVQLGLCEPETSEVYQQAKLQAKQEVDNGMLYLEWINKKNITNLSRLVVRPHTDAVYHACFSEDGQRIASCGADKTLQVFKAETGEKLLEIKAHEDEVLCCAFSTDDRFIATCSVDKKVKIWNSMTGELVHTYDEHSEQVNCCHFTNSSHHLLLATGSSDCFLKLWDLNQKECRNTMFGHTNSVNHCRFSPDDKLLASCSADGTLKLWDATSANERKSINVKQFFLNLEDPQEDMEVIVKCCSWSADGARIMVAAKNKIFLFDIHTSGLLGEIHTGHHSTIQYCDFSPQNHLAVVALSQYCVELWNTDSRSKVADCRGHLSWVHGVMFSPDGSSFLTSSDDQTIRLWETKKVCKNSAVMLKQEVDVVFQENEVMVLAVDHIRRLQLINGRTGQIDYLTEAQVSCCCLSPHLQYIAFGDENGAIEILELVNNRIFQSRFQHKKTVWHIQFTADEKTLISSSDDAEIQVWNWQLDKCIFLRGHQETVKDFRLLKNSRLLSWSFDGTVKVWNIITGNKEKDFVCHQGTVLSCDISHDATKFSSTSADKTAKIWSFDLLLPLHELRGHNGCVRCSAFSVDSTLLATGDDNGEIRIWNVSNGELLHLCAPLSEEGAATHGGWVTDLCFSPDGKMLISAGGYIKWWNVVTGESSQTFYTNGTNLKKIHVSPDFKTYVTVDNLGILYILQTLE
The class given is functional.

“And” between values parts separate entries of the source, which are not always exact repeats. Equal entries are not always repeated. The source made the active and inactive calls.

Sequence of Beta-2 adrenergic receptor (P07550 whole entry): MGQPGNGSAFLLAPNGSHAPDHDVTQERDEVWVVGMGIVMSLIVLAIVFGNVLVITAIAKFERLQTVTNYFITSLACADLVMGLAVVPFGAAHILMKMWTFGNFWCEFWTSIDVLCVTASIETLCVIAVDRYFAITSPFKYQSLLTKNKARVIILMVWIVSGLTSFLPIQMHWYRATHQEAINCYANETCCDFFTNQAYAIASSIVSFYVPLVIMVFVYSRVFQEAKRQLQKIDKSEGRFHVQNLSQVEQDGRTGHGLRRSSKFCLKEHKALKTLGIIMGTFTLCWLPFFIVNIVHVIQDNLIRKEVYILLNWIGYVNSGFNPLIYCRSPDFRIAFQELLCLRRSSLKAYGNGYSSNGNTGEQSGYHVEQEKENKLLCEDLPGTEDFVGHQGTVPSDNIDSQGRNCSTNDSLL
Sequence of Dual specificity protein kinase CLK1 (P49759 whole entry): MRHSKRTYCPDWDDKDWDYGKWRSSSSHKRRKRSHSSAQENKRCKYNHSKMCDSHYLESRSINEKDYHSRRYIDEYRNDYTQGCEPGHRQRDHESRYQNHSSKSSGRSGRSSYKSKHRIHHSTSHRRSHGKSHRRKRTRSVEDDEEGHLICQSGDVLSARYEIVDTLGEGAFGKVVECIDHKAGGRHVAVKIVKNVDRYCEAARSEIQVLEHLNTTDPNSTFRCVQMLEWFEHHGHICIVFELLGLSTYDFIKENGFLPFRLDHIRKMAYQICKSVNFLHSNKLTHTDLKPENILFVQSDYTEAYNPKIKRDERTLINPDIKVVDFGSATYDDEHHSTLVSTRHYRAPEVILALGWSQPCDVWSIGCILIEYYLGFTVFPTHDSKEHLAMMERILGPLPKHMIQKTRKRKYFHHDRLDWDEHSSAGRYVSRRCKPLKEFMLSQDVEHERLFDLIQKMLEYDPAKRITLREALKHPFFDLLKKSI
Sequence of Glycogen synthase kinase-3 beta (P49841 whole entry): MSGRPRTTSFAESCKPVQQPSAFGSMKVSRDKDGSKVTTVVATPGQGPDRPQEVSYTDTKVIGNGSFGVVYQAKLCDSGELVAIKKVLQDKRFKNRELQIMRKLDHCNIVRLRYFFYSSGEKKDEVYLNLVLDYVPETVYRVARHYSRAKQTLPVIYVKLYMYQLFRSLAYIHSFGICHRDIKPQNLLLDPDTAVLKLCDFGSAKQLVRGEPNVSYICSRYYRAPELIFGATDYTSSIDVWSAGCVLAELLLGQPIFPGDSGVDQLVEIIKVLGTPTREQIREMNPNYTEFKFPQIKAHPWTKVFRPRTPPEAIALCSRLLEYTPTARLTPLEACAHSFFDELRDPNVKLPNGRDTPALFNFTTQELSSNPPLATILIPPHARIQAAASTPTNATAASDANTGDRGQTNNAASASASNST
Sequence of Glycogen synthase kinase-3 alpha (P49840 whole entry): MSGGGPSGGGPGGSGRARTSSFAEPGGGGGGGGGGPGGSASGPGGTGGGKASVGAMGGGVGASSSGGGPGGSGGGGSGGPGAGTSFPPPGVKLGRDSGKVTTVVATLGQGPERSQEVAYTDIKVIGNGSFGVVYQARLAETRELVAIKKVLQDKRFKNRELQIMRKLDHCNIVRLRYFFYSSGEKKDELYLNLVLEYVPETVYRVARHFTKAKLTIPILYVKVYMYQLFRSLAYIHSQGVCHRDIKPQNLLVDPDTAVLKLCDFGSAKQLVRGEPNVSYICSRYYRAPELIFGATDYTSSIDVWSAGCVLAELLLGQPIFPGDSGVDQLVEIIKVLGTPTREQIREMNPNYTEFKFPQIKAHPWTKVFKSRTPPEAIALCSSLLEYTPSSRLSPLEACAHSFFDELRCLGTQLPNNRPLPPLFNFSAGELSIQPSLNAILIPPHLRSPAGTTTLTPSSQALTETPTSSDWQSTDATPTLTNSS
Sequence of Hexokinase-1 (P19367 whole entry, the tested form may be a part): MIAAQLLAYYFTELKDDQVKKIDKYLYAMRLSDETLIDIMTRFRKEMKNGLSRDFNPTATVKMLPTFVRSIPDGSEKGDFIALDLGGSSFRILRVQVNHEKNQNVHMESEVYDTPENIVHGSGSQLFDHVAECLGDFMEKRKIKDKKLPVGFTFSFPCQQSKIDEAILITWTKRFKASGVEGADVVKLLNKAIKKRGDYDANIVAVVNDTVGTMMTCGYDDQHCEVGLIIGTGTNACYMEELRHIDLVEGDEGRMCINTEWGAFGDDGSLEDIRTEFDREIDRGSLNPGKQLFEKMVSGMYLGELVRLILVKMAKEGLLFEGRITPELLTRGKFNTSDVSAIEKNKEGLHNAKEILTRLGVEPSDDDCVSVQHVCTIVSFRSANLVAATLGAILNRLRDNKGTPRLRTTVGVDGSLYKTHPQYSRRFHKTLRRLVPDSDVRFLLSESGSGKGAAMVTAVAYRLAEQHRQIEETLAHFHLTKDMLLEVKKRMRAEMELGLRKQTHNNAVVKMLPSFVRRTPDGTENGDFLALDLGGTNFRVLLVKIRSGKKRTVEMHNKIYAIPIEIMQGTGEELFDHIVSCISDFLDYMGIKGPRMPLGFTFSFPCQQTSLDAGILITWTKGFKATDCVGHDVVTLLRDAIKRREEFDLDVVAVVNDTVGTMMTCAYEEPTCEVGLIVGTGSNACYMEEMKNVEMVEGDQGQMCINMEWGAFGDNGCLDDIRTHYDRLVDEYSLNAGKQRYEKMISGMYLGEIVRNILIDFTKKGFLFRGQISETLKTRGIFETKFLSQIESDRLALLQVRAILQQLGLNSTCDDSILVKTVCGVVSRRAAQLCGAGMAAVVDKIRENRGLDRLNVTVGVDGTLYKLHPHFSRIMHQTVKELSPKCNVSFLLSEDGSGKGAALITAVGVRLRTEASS
Sequence of 5-hydroxytryptamine receptor 5A (P47898 whole entry): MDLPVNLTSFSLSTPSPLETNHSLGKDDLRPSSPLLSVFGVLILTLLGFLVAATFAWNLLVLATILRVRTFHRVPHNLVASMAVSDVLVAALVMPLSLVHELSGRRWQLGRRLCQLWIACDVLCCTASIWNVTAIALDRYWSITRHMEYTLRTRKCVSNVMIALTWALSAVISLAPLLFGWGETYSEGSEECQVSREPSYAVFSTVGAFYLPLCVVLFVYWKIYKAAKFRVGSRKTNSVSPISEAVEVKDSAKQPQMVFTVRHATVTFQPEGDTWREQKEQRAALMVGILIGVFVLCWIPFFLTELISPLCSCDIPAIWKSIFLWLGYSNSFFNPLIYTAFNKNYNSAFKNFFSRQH
Sequence of Mu-type opioid receptor (P35372 whole entry, the tested form may be a part): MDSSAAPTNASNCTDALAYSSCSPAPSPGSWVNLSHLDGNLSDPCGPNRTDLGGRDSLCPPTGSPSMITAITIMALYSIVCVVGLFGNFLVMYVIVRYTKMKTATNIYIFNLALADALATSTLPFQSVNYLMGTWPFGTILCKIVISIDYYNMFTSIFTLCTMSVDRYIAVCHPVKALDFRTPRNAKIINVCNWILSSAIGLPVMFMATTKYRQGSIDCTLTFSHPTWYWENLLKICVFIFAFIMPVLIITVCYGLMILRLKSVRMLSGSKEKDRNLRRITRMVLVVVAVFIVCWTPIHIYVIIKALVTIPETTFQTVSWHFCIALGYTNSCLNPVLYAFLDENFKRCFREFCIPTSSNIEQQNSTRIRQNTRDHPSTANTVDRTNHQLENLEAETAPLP
Sequence of Beta-arrestin-1 (P49407 whole entry): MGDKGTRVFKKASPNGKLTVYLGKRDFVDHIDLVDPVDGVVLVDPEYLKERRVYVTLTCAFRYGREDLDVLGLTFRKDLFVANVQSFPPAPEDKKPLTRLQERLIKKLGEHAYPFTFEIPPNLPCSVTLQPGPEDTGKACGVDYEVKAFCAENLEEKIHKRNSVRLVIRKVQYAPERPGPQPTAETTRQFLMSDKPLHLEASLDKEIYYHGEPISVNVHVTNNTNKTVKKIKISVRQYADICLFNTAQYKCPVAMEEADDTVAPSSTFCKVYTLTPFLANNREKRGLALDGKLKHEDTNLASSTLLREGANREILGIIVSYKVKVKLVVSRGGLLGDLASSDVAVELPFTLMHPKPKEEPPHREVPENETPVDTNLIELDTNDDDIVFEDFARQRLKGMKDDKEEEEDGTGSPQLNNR
Sequence of Delta-type opioid receptor (P41143 whole entry): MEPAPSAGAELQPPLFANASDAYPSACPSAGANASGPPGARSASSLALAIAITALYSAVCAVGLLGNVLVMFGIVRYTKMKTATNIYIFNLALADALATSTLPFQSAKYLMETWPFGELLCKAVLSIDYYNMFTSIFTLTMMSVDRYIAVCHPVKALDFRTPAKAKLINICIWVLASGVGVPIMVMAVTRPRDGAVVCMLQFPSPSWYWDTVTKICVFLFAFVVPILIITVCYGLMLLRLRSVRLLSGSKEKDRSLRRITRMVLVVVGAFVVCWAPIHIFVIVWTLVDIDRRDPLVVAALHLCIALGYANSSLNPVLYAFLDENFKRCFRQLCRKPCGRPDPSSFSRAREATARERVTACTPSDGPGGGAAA
Sequence of Long-chain-fatty-acid--AMP ligase FadD28 (P9WQ59 whole entry): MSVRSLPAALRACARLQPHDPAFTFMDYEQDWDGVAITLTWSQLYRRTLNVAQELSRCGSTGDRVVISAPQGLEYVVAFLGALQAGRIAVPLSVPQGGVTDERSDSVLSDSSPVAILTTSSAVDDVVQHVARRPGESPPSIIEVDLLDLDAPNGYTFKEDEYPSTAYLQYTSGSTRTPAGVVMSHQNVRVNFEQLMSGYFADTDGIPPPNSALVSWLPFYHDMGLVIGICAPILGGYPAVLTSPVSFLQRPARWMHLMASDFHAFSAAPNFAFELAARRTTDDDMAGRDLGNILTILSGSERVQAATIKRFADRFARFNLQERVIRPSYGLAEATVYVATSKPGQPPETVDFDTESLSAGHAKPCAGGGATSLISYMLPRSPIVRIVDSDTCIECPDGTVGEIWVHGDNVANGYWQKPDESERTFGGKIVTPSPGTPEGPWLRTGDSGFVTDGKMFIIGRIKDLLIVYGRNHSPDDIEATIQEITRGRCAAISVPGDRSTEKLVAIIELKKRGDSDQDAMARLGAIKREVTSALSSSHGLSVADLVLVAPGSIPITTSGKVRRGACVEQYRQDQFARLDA

For orientation: EC50 means the midpoint of the concentration-response curve. Regarding `CCOC(=O)c1ccc(NC(=O)Cn2nnc(-c3ccc(C)cc3)n2)cc1`, the EC50 in assay [1] is 158 nM (active) and 839 nM (active).

The IC50 is the concentration at which inhibition is half-maximal. `COc1cc(-c2nc3n(n2)C(c2ccc(F)cc2)C2=C(O)CCCC2=N3)cc(OC)c1OC` (configuration not stated): the IC50 is 39.1 µM (inactive) in assay [2], > 79 µM (inactive) in [3], > 80 µM (inactive) in assay [4] and 31.4 µM (inactive) in assay [5].

As a reminder, the AC50 is the concentration at which the activity in the assay is half-maximal. One may read the CC50 as the concentration that lowers cell viability or growth by half. Turning to `CN(C)S(=O)(=O)c1ccc(NC(=O)c2cc3ccccc3o2)cc1`, the AC50 in assay [6] is 21.1 µM (active); in assay [7], 29.9 µM (active). In addition, the CC50 in [8] was > 40 µM (active).

For `Br.CC1[C@H]2Cc3ccc(O)cc3[C@]1(C)CCN2CCc1ccccc1` (some centres not stated), the EC50 is 0.551 µM (active) in assay [9], greater than 0.01406 µM in assay [10], > 92.5 µM (inactive) in assay [11] and > 10.3 µM (inactive) in assay [12].

As for `O=c1c2ccccc2nc(/C=C/c2cccnc2)n1Cc1ccccc1F`, the IC50 in [13] and in [14] was > 80 µM (inactive) in each case.

`Cc1cc(C)n2nc(SCC(=O)N3CCN(c4ccccc4)CC3)nc2n1`: the AC50 in [15] is 106 µM (active).

On to `c1cncc(-c2nc(NCCCn3cccc3)c3ccccc3n2)c1`, for which the values for the AC50 in assay [16] and in assay [17] were 2.97 µM (active) and 7.63 µM (active), respectively.

For `Cc1cc2nc3ccc(N(C)C)cc3nc2cc1N`, the AC50 in assay [18] is 33.6 µM (active). Further, the IC50 in assay [19] was 8.88 µM (active); in assay [22], 34 µM (active). Further, the results for the EC50 in [20] and in assay [21] were 13 µM (active) and 14.3 µM (active), respectively.
